Key:
Type in all cases: cell-based
Pseudomonas aeroginosa = assay: MIC on Landy agar against bacteria; settings: 72 h, 3 days at 28° C., 60-70% relative atmospheric humidity, read-out: Minimum inhibitory concentrations Pseudomonas aeroginosa
Protocol: (§1) A defined Landy Agar was admixed with the active compounds according to the invention in concentrations of […]. The MIC was determined after 3 days of storage at 28° C. and 60-70% relative atmospheric humidity.

Bacillus subtilis = assay: MIC on Landy agar against bacteria; settings: 72 h, 3 days at 28° C., 60-70% relative atmospheric humidity, read-out: Minimum inhibitory concentrations Bacillus subtilis
Protocol: as §1

Penicillium brevicaule = assay: MIC on malt extract agar against fungi; settings: 336 h, 2 weeks at 28° C., 60 to 70% relative atmospheric humidity, read-out: Minimum inhibitory concentrations Penicillium brevicaule
Protocol: (§2) The MIC was determined after 2 weeks of storage at 28° C. and 60 to 70% relative atmospheric humidity.

Chaetomium globosum = assay: MIC on malt extract agar against fungi; settings: 336 h, 2 weeks at 28° C., 60 to 70% relative atmospheric humidity, read-out: Minimum inhibitory concentrations Chaetomium globosum
Protocol: as §2

| SMILES | MIC (Pseudomonas aeroginosa) [µg/mL] | MIC (Bacillus subtilis) [µg/mL] | MIC (Penicillium brevicaule) [µg/mL] | MIC (Chaetomium globosum) [µg/mL] |
| --- | --- | --- | --- | --- |
| N#CC1=C(NO)CCC1 [Example 1, 2-(Hydroxyamino)-1-cyclopentene-1-carbonitrile] | < 400 | < 400 |  |  |
| N#CC1=C(NOCc2ccccc2)CCC1 [Example 3, 2-[(Benzyloxy)amino]-1-cyclopentene-1-carbonitrile] |  |  | < 400 | < 400 |
| CC(C)C(=O)ON(C(=O)C(C)C)C1=C(C#N)CCC1 [Example 4, N-(2-Cyano-1-cyclopenten-1-yl)-N-(isobutyryloxy)-2-methylpropanamide] | < 400 | < 400 | < 400 | < 400 |
| Cc1ccc(CONC2=C(C#N)CCC2)cc1 [Example 12] |  |  | < 400 | < 400 |
| N#CC1=C(NOCc2ccc(Cl)cc2)CCC1 [Example 14] |  |  | < 400 | < 400 |

— patent US20060142384A1, “2-Oxyamino-1-cyclopentene-1-nitriles as material protective agents” (priority 2002, published 2006)
